The results in this text go back to PMC9814642 (2021).

In test [1] the test system is HT G-quadruplex (DNA, G4) AGGGTTAGGGTTAGGGTTAGGG
Description: UV-vis absorption titration. The settings on record: 100 mM NaCl; 10 mM Tris-HCl pH 7.5, 25 °C; fit with [DNA] in base pairs, binding size s = 2.3; per base.

The test system of test [2] is ds-DNA (HT with complementary sequence) (DNA, duplex) AGGGTTAGGGTTAGGGTTAGGG/CCCTAACCCTAACCCTAACCCT
The experiment in a line: time-resolved luminescence at 620 nm. The note with it: 100 mM NaCl; 10 mM Tris-HCl pH 7.5; lifetimes 492 and 88.1 ns.

Test [3] deals with HT8 (DNA, G4) AGGGTTATGGTTAGGGTTAGGG
Description: time-resolved luminescence at 620 nm. The settings on record: 100 mM NaCl; 10 mM Tris-HCl pH 7.5; lifetimes 1046 and 151.2 ns.

The test system of test [4] is HT G-quadruplex (DNA, G4) AGGGTTAGGGTTAGGGTTAGGG
The experiment in a line: CD melting at 295 nm. The note with it: 100 mM NaCl; 10 mM Tris-HCl pH 7.5; derived from two Tm (56.6, 61.0); highest compound concentration, ratio only in Figure 2D.

The test system of test [5] is Oxyticha nova G-quadruplex (DNA, G4) GGGGTTTTGGGG
The experiment in a line: UV-vis absorption titration. The settings on record: 100 mM NaCl; 10 mM Tris-HCl pH 7.5, 25 °C; fit with [DNA] in base pairs, binding size s = 1; per base.

Test [6] concerns HT10 (DNA, G4) AGGGTTAGGTTTAGGGTTAGGG
Description: time-resolved luminescence at 620 nm. The settings on record: 100 mM NaCl; 10 mM Tris-HCl pH 7.5; lifetimes 430.7 and 61.4 ns.

Test [7] relates to Oxyticha nova G-quadruplex (DNA, G4) GGGGTTTTGGGG
Description: CD melting. The settings on record: 100 mM NaCl; 10 mM Tris-HCl pH 7.5; no change of Tm 59.2 °C; binds by end-stacking.

Take `[Ru+2].c1ccc2nc3c4cccnc4c4ncccc4c3nc2c1.c1cnc2c(c1)ccc1cccnc12.c1cnc2c(c1)ccc1cccnc12`: the K was determined as 5.1e+06 M⁻¹ in test [1] and 990000 M⁻¹ in test [5]. Further, the binding result in test [2], in test [3] and in test [6] was “yes” each time. In addition, the shift in melting temperature (ΔTm) worked out at 4.4 °C in test [4] and 0 °C in test [7].

As a reminder, the ΔTm is the change in melting temperature against a reference sample.
